Assay results as given in PubChem BioAssay AID248 (DTP/NCI, 2004).
Several values for one entry are separate records, joined by “and”; a condition that tells them apart may be missing. Equal entries are not always repeated. Toxic doses and inconclusive results are not listed.

Tested on: L1210 leukemia ip in BDF1 mice, survival T/C
Test: NCI In Vivo Anticancer Drug Screen. Data for tumor model L1210 Leukemia (intraperitoneal) in B6D2F1 (BDF1) mice
Details: endpoint: mean survival time, higher = longer survival
Method in brief: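 In this screen, tumor-bearing mice given compound are compared to those given vehicle, and their survival values are reported as a treated-to-control quotient.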

[1] = dose: 100.0 mg/kg/injection, schedule: Q01DX009 (ip), vehicle: Klucel (hydroxypropylcellulose) (HPC)
[2] = dose: 100.0 mg/kg/injection, schedule: Q04DX003 (ip), vehicle: Klucel (hydroxypropylcellulose) (HPC)
[3] = dose: 100.0 mg/kg/injection, schedule: Q04DX003 (ip), vehicle: saline
[4] = dose: 200.0 mg/kg/injection, schedule: Q04DX003 (ip), vehicle: saline
[5] = dose: 400.0 mg/kg/injection, schedule: Q04DX003 (ip), vehicle: saline
[6] = dose: 100.0 mg/kg/injection, schedule: Q04DX003 (ip), vehicle: saline with Tween-80
[7] = dose: 200.0 mg/kg/injection, schedule: Q01DX009 (ip), vehicle: saline with Tween-80
[8] = dose: 200.0 mg/kg/injection, schedule: Q04DX003 (ip), vehicle: saline with Tween-80
[9] = dose: 400.0 mg/kg/injection, schedule: Q04DX003 (ip), vehicle: saline with Tween-80
[10] = dose: 50.0 mg/kg/injection, schedule: Q04DX002 (ip), vehicle: Klucel (hydroxypropylcellulose) (HPC)
[11] = dose: 100.0 mg/kg/injection, schedule: Q04DX002 (ip), vehicle: Klucel (hydroxypropylcellulose) (HPC)
[12] = dose: 200.0 mg/kg/injection, schedule: Q04DX003 (ip), vehicle: Klucel (hydroxypropylcellulose) (HPC)
[13] = dose: 400.0 mg/kg/injection, schedule: Q04DX003 (ip), vehicle: Klucel (hydroxypropylcellulose) (HPC)
[14] = dose: 100.0 mg/kg/injection, schedule: Q04DX002 (ip), vehicle: saline with Tween-80
[15] = dose: 12.5 mg/kg/injection, schedule: Q01DX009 (ip), vehicle: saline with Tween-80
[16] = dose: 25.0 mg/kg/injection, schedule: Q01DX009 (ip), vehicle: saline with Tween-80
[17] = dose: 200.0 mg/kg/injection, schedule: Q04DX002 (ip), vehicle: Klucel (hydroxypropylcellulose) (HPC)

O=C1CCCC(=O)C1C(C[N+](=O)[O-])c1ccccc1 (centres undefined)
T/C (dose: 12.5 mg/kg/injection, schedule: Q01DX009 (ip), vehicle: Klucel (hydroxypropylcellulose) (HPC)): 97 % of control | T/C (dose: 25.0 mg/kg/injection, schedule: Q01DX009 (ip), vehicle: Klucel (hydroxypropylcellulose) (HPC)): 93 % of control | T/C (dose: 50.0 mg/kg/injection, schedule: Q01DX009 (ip), vehicle: Klucel (hydroxypropylcellulose) (HPC)): 90 % of control | T/C [1]: 88 % of control | T/C [2]: 98 % of control

O=C(O)CCN1C/C(=C\c2ccc(Cl)cc2)C(=O)C1=O
T/C [3]: 101 % of control | T/C [4]: 101 % of control | T/C [5]: 101 % of control

O=C(Nc1cccc(Cl)c1)Nc1cc(Cl)ccc1Cl
T/C (dose: 100.0 mg/kg/injection, schedule: Q01DX009 (ip), vehicle: saline with Tween-80): 92 % of control | T/C [6]: 96 % of control | T/C [7]: 90 % of control | T/C [8]: 91 % of control | T/C (dose: 400.0 mg/kg/injection, schedule: Q01DX009 (ip), vehicle: saline with Tween-80): 94 % of control | T/C [9]: 97 % of control

N=c1ccccn1C(=O)C1=Cc2ccccc2OC1
T/C (dose: 100.0 mg/kg/injection, schedule: Q01DX001 (ip), vehicle: saline with Tween-80): 103 % of control | T/C (dose: 200.0 mg/kg/injection, schedule: Q01DX001 (ip), vehicle: saline with Tween-80): 100 % of control | T/C (dose: 400.0 mg/kg/injection, schedule: Q01DX001 (ip), vehicle: saline with Tween-80): 96 % of control

Cc1nccn1-c1ccccc1N=Cc1ccc(N(CCCl)CCCl)cc1Cl
T/C (dose: 100.0 mg/kg/injection, schedule: Q04DX002 (ip), vehicle: saline): 102 % of control | T/C (dose: 200.0 mg/kg/injection, schedule: Q04DX002 (ip), vehicle: saline): 102 % of control | T/C (dose: 400.0 mg/kg/injection, schedule: Q04DX002 (ip), vehicle: saline): 98 % of control

CC1(C)CC(N=Cc2ccccc2O)CC(C)(C)N1O.CC1(C)CC(N=Cc2ccccc2O)CC(C)(C)N1O.[Zn]
T/C (dose: 25.0 mg/kg/injection, schedule: Q04DX002 (ip), vehicle: Klucel (hydroxypropylcellulose) (HPC)): 91 % of control | T/C [10]: 91 % of control | T/C [11]: 94 % of control

C[N+]1(CCC[N+]2(C)CC3CC=CCC3C2)CCOCC1 (centres undefined)
T/C [3]: 92 % of control | T/C [4]: 92 % of control | T/C [5]: 92 % of control

Cn1ncc2ccccc2c1=O
T/C (dose: 50.0 mg/kg/injection, schedule: Q04DX003 (ip), vehicle: Klucel (hydroxypropylcellulose) (HPC)): 100 % of control | T/C [2]: 100 % of control | T/C [12]: 106 % of control | T/C [13]: 110 % of control

CC(=O)OC(C)(C)/C=C/C(=O)C(C)(O)C1C(O)CC2(C)C3CC=C4C(C=C(OC5OC(CO)C(O)C(O)C5O)C(=O)C4(C)C)C3(C)C(=O)CC12C (centres undefined)
T/C (dose: 25.0 mg/kg/injection, schedule: Q04DX002 (ip), vehicle: saline with Tween-80): 98 % of control | T/C (dose: 50.0 mg/kg/injection, schedule: Q04DX002 (ip), vehicle: saline with Tween-80): 98 % of control | T/C [14]: 96 % of control and 105 % of control

O=c1[nH]cnc2sc3c(c12)CCCC3
T/C (dose: 100.0 mg/kg/injection, schedule: Q01DX009 (ip), vehicle: saline sonified): 94 % of control | T/C (dose: 100.0 mg/kg/injection, schedule: Q04DX003 (ip), vehicle: saline sonified): 92 % of control | T/C (dose: 200.0 mg/kg/injection, schedule: Q01DX009 (ip), vehicle: saline sonified): 116 % of control | T/C (dose: 200.0 mg/kg/injection, schedule: Q04DX003 (ip), vehicle: saline sonified): 98 % of control | T/C (dose: 400.0 mg/kg/injection, schedule: Q01DX009 (ip), vehicle: saline sonified): 100 % of control | T/C (dose: 400.0 mg/kg/injection, schedule: Q04DX003 (ip), vehicle: saline sonified): 101 % of control

CCOC(=O)C1(CCCN2C(=O)c3ccccc3C2=O)CC(C(=O)OCC)(C(=O)OCC)CCC1=O (centres undefined)
T/C [14]: 94 % of control | T/C (dose: 200.0 mg/kg/injection, schedule: Q04DX002 (ip), vehicle: saline with Tween-80): 100 % of control

CC1=CC(=O)CC(C)C2CC(=C(C)C)CC12 (centres undefined)
T/C [2]: 100 % of control | T/C [12]: 108 % of control | T/C [13]: 100 % of control

CC(=O)Nc1ccc(/C=N/NC(=O)CNC(=O)Nc2cccc(Cl)c2)cc1
T/C [15]: 95 % of control | T/C [16]: 95 % of control | T/C (dose: 50.0 mg/kg/injection, schedule: Q01DX009 (ip), vehicle: saline with Tween-80): 87 % of control and 91 % of control

CN1CC(C(=O)NO)C=C2c3cccc4[nH]cc(c34)CC21 (centres undefined)
T/C (dose: 50.0 mg/kg/injection, schedule: Q04DX003 (ip), vehicle: alcohol): 104 % of control | T/C (dose: 100.0 mg/kg/injection, schedule: Q04DX003 (ip), vehicle: alcohol): 101 % of control | T/C (dose: 200.0 mg/kg/injection, schedule: Q04DX003 (ip), vehicle: alcohol): 103 % of control

CCCCCCCCCCCCCCCCCC(=O)Oc1c(C(C)CC)cc([N+](=O)[O-])cc1[N+](=O)[O-] (centres undefined)
T/C [11]: 89 % of control | T/C [17]: 86 % of control | T/C (dose: 400.0 mg/kg/injection, schedule: Q04DX002 (ip), vehicle: Klucel (hydroxypropylcellulose) (HPC)): 105 % of control

CC(=O)OC1CCC(C)(C2CCC3(C)C(C(C)CCCC(C)C)CCC3C2CC(=O)O)C(=O)C1 (centres undefined)
T/C [6]: 87 % of control | T/C [7]: 97 % of control | T/C [8]: 91 % of control | T/C [9]: 91 % of control

CC1(C)CCCC2(C)C3=C(CC4(C(C)(C)O)OC4C3=O)C(=O)CC12 (centres undefined)
T/C (dose: 100.0 mg/kg/injection, schedule: Q01DX001 (ip), vehicle: saline): 102 % of control | T/C (dose: 200.0 mg/kg/injection, schedule: Q01DX001 (ip), vehicle: saline): 105 % of control | T/C (dose: 400.0 mg/kg/injection, schedule: Q01DX001 (ip), vehicle: saline): 109 % of control

COc1cc2c(c(-c3c(O)c(OC)cc4c3CC[n+]3cc5c(OC)c(OC)ccc5cc3-4)c1O)CC[n+]1cc3c(OC)c(OC)ccc3cc1-2
T/C [10]: 100 % of control | T/C [11]: 108 % of control | T/C [17]: 100 % of control

CCCCCCCCCCCCCCCCCC(=O)N1C(=O)c2ccccc2C1=O
T/C (dose: 100.0 mg/kg/injection, schedule: Q01DX001 (ip), vehicle: other): 87 % of control | T/C (dose: 200.0 mg/kg/injection, schedule: Q01DX001 (ip), vehicle: other): 88 % of control | T/C (dose: 400.0 mg/kg/injection, schedule: Q01DX001 (ip), vehicle: other): 92 % of control

CN1CCC2(CC1)C(C#N)C(=O)NC(=O)C2C#N (centres undefined)
T/C (dose: 100.0 mg/kg/injection, schedule: Q01DX001 (ip), vehicle: carboxymethylcellulose (CMC)): 92 % of control | T/C (dose: 200.0 mg/kg/injection, schedule: Q01DX001 (ip), vehicle: carboxymethylcellulose (CMC)): 101 % of control | T/C (dose: 400.0 mg/kg/injection, schedule: Q01DX001 (ip), vehicle: carboxymethylcellulose (CMC)): 95 % of control

CCc1ccccc1NC(=O)Sc1ccccc1O
T/C (dose: 6.25 mg/kg/injection, schedule: Q01DX009 (ip), vehicle: saline with Tween-80): 105 % of control | T/C [15]: 105 % of control | T/C [16]: 93 % of control and 102 % of control

CC(=O)OCC(OC(C)=O)C(OC(C)=O)C(OC(C)=O)C(OC(C)=O)C(C=O)OC(C)=O (centres undefined)
T/C [6]: 92 % of control | T/C [8]: 95 % of control | T/C [9]: 106 % of control

NC(=O)c1[nH]cnc1/N=N/N(CCCl)Cc1ccccc1
T/C (dose: 100.0 mg/kg/injection, schedule: Q01DX001 (ip), vehicle: Klucel (hydroxypropylcellulose) (HPC)): 111 % of control | T/C [1]: 255 % of control | T/C [2]: 123 % of control | T/C (dose: 133.0 mg/kg/injection, schedule: Q01DX001 (ip), vehicle: Klucel (hydroxypropylcellulose) (HPC)): 120 % of control | T/C (dose: 200.0 mg/kg/injection, schedule: Q01DX009 (ip), vehicle: Klucel (hydroxypropylcellulose) (HPC)): 164 % of control | T/C [12]: 221 % of control | T/C (dose: 400.0 mg/kg/injection, schedule: Q01DX001 (ip), vehicle: Klucel (hydroxypropylcellulose) (HPC)): 174 % of control and 195 % of control | T/C (dose: 400.0 mg/kg/injection, schedule: Q01DX009 (ip), vehicle: Klucel (hydroxypropylcellulose) (HPC)): 117 % of control | T/C [13]: 296 % of control
